# Experimental data from patent US10098895B2, “Treatment of symptoms related to neurodegenerative disorders through pharmacological dermal activation of cranial nerves” (GLIA, LLC, priority 2016, dated 2018).
# Entries after “also recorded” stand apart in the source; their conditions may differ.
# Key:
# [1] = test system: Parkinson's tremor and ocular graft-versus-host disease; assay: Example 3: Parkinson's tremor and co-morbid ocular graft-versus-host disease, topical progesterone; format: in vivo, human
# Text: A person was diagnosed with Parkinson's disease over 3 years ago, leukemia about 2 years ago, and ocular graft versus host disease resulting from allogeneic stem cell treatment for the leukemia. The patient has been on oral carbidopa-levodopa for at least 2 years.
# The patient started treatment with twice daily progesterone 1% gel applied to the forehead to promote ocular secretion of tear film, and to resolve other symptoms and signs of surface eye disease. […] On a follow up visit 5 weeks later, they reported continued relief from burning and photophobia.
# When the patient was first seen in June 2016, they had noticeable significant tremors in both hands and multiple fingers. These were related to their Parkinson's disease as diagnosed and included muscle contractions, i.e., dyskinesia, related to their carbidopa-levodopa oral treatment.
# During the 5-week ophthalmologist follow-up visit, the progesterone treatment regimen was performed in the office in modified form. More specifically, the daily dose of progesterone was divided, with 1 mg applied to the concha of each ear, excluding the forehead, to which progesterone had been applied 6 hours earlier. The patient reported improved moisture and comfort in both eyes approximately 2 minutes post application.
# The patient had taken carbidopa-levodopa extended release medication at 6 am that morning, with an added immediate release dose at 8 am. The visit to the ophthalmologist was at 2 pm. At that point there was uncontrolled movement of the hands (dyskinesia) along with finger vibrations. The patient reported that the usual duration of efficacy of their carbidopa-levodopa regimen was 4 hours. Normally they would have taken another carbidopa-levodopa dose at 2 pm. Instead, progesterone was applied to the concha of both ears as described, supra.
# [2] = test system: c-Fos-positive neurons of the spinal trigeminal nucleus; assay: Example 10: effect of topical progesterone on neural c-Fos expression in rat brainstem; format: in vivo; settings: progesterone 1% on the forehead, less than 0.2 mg per dose, two hours later
# Method: A study was conducted in a rat model using the same formulation of progesterone and the same route of administration as had been used by the individuals in the preceding examples. In the study, 7 rats were treated with progesterone 1% on the forehead, estimated to be less than 0.2 mg per dose, and 6 rats received placebo. Two hours later the animals were perfused and brainstems removed. Brainstem tissues were processed for immunohistochemistry using an anti-c-Fos antibody to identify c-Fos protein in cell nuclei that can be counted to assess the activity of c-Fos-positive neurons. Two regions of the spinal trigeminal nucleus were examined: (i) rostral spinal trigeminal nucleus (Vsp) subnucleus interpolaris/subnucleus caudalis (Vi/Vc) region and (ii) caudal Vsp subnucleus caudalis/cervical 1 (Vc/C1) region. […] The rat model confirmed forehead application of progesterone signaled the neurons responsible for activation of tear film production. Various authors and experiments had confirmed the role of neurons in the rostral subnucleus interpolaris (Vi/Vc) and caudalis (Vc/C1) region of brain stem within the spinal trigeminal nucleus (Vsp), a major termination zone for trigeminal sensory fibers, to innervate the eye. When cFos genes in these neurons are activated, cFos proteins are produced that can be stained to count the number of activated neurons. (Meng et al., 1996; Meng et al., 2013).
# [3] = test system: essential tremor; assay: Example 7: essential tremor subject with contact lens discomfort; format: in vivo, human
# Method: A person developed persistent right hand tremors of a kinetic (non-resting) type that has been continuous over the past 6 years. […] This condition had not worsened over time. […] Initially, their doctor thought that these symptoms were stress related and they have been taking 2.5 mg of escitalopram for over 6 years. […] The subject was not on hormone replacement therapy or any other medication.
# Concomitantly, the subject suffered from uncomfortable eyes, with a sticky burning sensation and development of blurred vision after about 5-6 hours of contact lens wear. For the past 3 years, the subject was administered 1% progesterone gel (1 mg per day) by dermal application to the forehead once per night. The progesterone gel prolonged comfortable contact lens wear time with sustained visual acuity from 5-6 hours to greater than 15 hours. […] After 2 years of treatment, the benefits of progesterone dermal application persisted for at least 3 days without treatment. There was no effect of the progesterone on their tremor symptoms.
# After allowing for washout of progesterone for 3 days, they began forehead application of 0.5-0.75 mg dronabinol once daily at night.
# The dronabinol administration regimen was altered by dividing equally the once daily dose of 0.5-0.75 mg dronabinol between the conchae of the left ear, the conchae of the right ear, and the forehead. […] Comfortable contact lens wear, with ease of insertion and removal, and visual acuity extends for 15 hours or more after dronabinol application.
# Contact lens comfort wear duration was greater than 15 hours.
# In April 2017, the subject, while still being treated with 1% progesterone applied to the forehead, instituted a once-daily low dose topical testosterone applied to the forehead and ear conchae to determine if doing so would produce a beneficial impact on further tremor reduction and in particular essential tremor triggered by caffeine consumption. […] They stopped the treatment to assess whether the tremor would return to pre-testosterone treatment levels. As of August 2017, the subject is without noticeable tremor. The caffeine trigger for tremor onset, which had been recognized throughout all treatments, has not re-appeared since the completion of the 4-week testosterone treatment. The subject continues on low-dose progesterone 1% applied daily to the forehead as the only treatment.
# [4] = test system: Parkinson's disease symptoms; assay: Example 1: Parkinson's disease patient, dermal application to forehead and ear conchae
# Method: A person was diagnosed with the early stages of Parkinson's disease in December of 2014. Their symptoms included tremors in the hands, impaired short term memory, slow and uncontrolled rigid movements while walking and eating, and declining ocular blink function. The patient also had dry eyes with hyper-tearing, burning, and itching.
# The patient was also treated with progesterone 1% on the forehead initially once daily beginning in March 2015. […] The progesterone was applied as needed for about a year.
# Instead of the prescribed regimen, the patient began dermal application of dronabinol 1.25 mg 2 times daily to three sites: (i) the forehead, (ii) the concha of the left ear, and (iii) the concha of the right ear. Each dose of 1.25 mg was divided equally between the three application sites. This treatment regimen began Friday Jun. 10, 2016 concurrent with the discontinuation of rasagiline.
# In February 2017, the patient, who suffers from debilitating moderate spinal stenosis, started taking Azilect (rasagiline) and carbidopa-levodopa to improve their walking and flexibility. […] The patient decided that, together with the prescribed medications, they would switch from dronabinol to topical testosterone gel applied to the forehead and ear conchae to see if this would impact their longstanding low testosterone levels.
# In March 2017, topical testosterone gel application was instituted as an adjunct to is the prescribed Azilect and carbidopa-levodopa.
# The patient voluntarily stopped topical testosterone for 3 weeks in June 2017. […] At the end of 3 weeks, topical testosterone was re-instituted as an adjunct to the prescribed medications.
# [5] = progesterone 0.5% to the concha of both ears
smiles,measurement,setting,value
CC(=O)[C@H]1CC[C@H]2[C@@H]3CCC4=CC(=O)CC[C@]4(C)[C@H]3CC[C@]12C [progesterone],onset of tremor cessation,[1]; low dose progesterone USP added to conchae of outer ears,rapid cessation of tremor within minutes
same,time to improved moisture and comfort in both eyes,[1]; progesterone 1 mg to the concha of each ear,approximately 2 minutes
same,reduction of tremors in hands and fingers in frequency and amplitude,"[1]; progesterone 1 mg to the concha of each ear, 2 minutes post application",about 90%
same,tear film secretion,"[1]; progesterone 1% gel twice daily to forehead, after initial treatment",tear film secretion was improved
same,photophobia and burning,"[1]; progesterone 1% gel twice daily to forehead, after initial treatment, on oral carbidopa-levodopa",immediate relief of photophobia and burning
same,facial masking and facial expression,[1]; progesterone applied to ear conchae regions,decreased facial masking and more voluntary facial expressions
same,hand and finger tremors,"[1]; progesterone applied to the forehead only, 5 weeks",no change seen in the hand and finger tremors
same,tremor,"[1]; topical progesterone to both conchae and forehead, carbidopa-levodopa at lower dosing frequency, 5 days",remained tremor-free until the subsequent visit 5 days later
same,"number of activated (c-Fos-positive) neurons in the Vc/C1 region, compared to placebo",[2],but not the Vc/C1 region
same,"number of activated (c-Fos-positive) neurons in the Vi/Vc region, compared to placebo",[2]; 7 rats vs 6 placebo,significantly greater number of activated neurons; also recorded: significant increase in activated neurons
same,tremor symptoms,[3]; 1% progesterone gel (1 mg per day) to forehead,no effect
same,comfortable contact lens wear time with sustained visual acuity,"[3]; 1% progesterone gel (1 mg per day) to forehead once per night, from 5-6 hours before",greater than 15 hours
same,persistence of benefits without treatment,[3]; after 2 years of progesterone dermal application to forehead,at least 3 days
same,adverse events,"[3]; human, in vivo",no adverse events
same,routine mammography and serum hormone levels,"[3]; human, in vivo",normal
same,comfortable contact lens wear,"[3]; low dose progesterone 1% to the forehead only, daily, 12 months up to August 2017",15 h
same,tremor on maintenance treatment,[3]; maintenance dose of progesterone 1% to forehead after testosterone course,tremor-free
same,contact lens comfort wear duration,[3]; [5],greater than 15 hours
same,hand tremor,[3]; [5],subsided to the same degree as it did with dronabinol treatment
same,adverse events,"[4]; human, in vivo",no adverse events were noted
same,ocular symptoms of burning and itching,"[4]; progesterone 1% on the forehead, initially once daily, then as needed, on oral rasagiline",relieved their ocular symptoms of burning and itching
same,dry eye disease symptoms,"[4]; progesterone 1% to the forehead once every week, July 2016 to August 2017",fully manage dry eye disease symptoms
